Test results as given in publication PMC10060569 (Frontiers in Pharmacology, 2023).

Tests used:
COX1 = system: COX1; parameters: method as in Warner et al., 1999; details: ref Warner et al., 1999; cited from earlier work
hP2X2R = target: T1, hP2X2R (Homo sapiens, UniProt Q9UBL9); assay: TEVC of ATP-induced currents, hP2X2R in X. laevis oocytes (steady-state protocol); type: cell-based
T1 construct: expressed in transfected cells; host or cells: Xenopus laevis oocytes (cRNA injection)
T1 sequence (Q9UBL9 1-471): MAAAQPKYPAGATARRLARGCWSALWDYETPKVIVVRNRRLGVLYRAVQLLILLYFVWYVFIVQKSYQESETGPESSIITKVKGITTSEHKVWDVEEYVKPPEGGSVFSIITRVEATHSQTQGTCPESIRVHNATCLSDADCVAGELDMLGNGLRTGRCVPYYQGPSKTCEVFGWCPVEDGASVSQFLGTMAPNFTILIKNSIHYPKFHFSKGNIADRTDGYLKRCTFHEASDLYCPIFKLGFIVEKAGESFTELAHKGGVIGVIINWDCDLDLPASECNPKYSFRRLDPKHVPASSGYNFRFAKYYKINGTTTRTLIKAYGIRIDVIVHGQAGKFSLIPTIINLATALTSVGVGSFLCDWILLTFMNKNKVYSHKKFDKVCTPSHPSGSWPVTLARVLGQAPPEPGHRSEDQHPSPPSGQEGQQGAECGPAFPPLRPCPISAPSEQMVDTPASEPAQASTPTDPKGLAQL
Source text: Oocyte expression plasmids encoding the wild-type (wt) and N-terminally His-tagged (His-) fusion constructs of the hP2X2R, hP2X3R, hP2X4R, and hP2X7R, and the mutant His-^20RMVL^23KVIV^23S^26N-hP2X1R, S^15V-rP2X3R, and His-S^15V-hP2X3R were the same as used in previous research ([Hausmann et al., 2006]; [Wolf et al., 2011]; [Hausmann et al., 2014]; [Obrecht et al., 2019]). In most cases, the N-terminal His-tagged variants of P2XRs were used here and in the previous studies to allow biochemical analyses on affinity-purified proteins using the same constructs. Although this was not required for the present study, it allows for better comparability with our previous studies. Capped cRNAs of different P2XRs were already available in the research group or were synthesized as previously described ([Schmalzing et al., 1991]; [Stolz et al., 2015]). cRNA was injected into collagenase-defolliculated X. laevis oocytes in aliquots of 41 nl or 23 nl (see Supplementary Table S1 for the amount of cRNA used for expression of the indicated P2XR) using a Nanoliter 2000 injector (World Precision Instruments, Sarasota, United States of America) as described previously ([Hausmann et al., 2014]; [Stolz et al., 2015]; [Obrecht et al., 2019]). To express the heteromeric hP2X2/3 receptor, cRNAs encoding His-hP2X2R and wt-hP2X3R were coinjected at a ratio (w/w) of 1:6. Oocytes were stored at 19°C in an oocyte ringer solution (ORi^+) containing 90 mM NaCl, 1 mM KCl, 1 mM CaCl2, 1 mM MgCl2, and 10 mM HEPES (Carl Roth, Karlsruhe, Germany) adjusted to pH 7.4 with NaOH and supplemented with 50 μg/ml gentamicin (AppliChem, Darmstadt, Germany). The procedures followed for the maintenance of and the surgical treatment for X. laevis adults were approved by the governmental animal care and use committee of the State Agency for Nature, Environment, and Consumer Protection (LANUV, Recklinghausen, Germany; reference no. 81-02.04.2019. A355), in compliance with Directive 2010/63/EU of the European Parliament and of the Council on the protection of animals used for scientific purpose.
Ion currents mediated by P2X receptors were evoked by the indicated concentration of ATP or α,β-meATP and were recorded 1 or 2 days after cRNA injection at ambient temperature at a holding potential of −60 mV by two-electrode voltage clamp (TEVC) as previously described ([Hausmann et al., 2006]). Calcium-free ORi^− solution (90 mM NaCl, 1 mM KCl, 2 mM MgCl2, 10 mM HEPES, pH 7.4) was used to avoid bias due to calcium-activated chloride channels (CaCC) endogenously expressed in X. laevis oocytes ([Miledi, 1982]; [Methfessel et al., 1986]). For recordings of wt-hP2X7R, the composition of the ORi^− solution was modified according to protocols described previously and contained 100 mM NaCl, 2.5 mM KCl, 1 mM MgCl2, 5 mM HEPES, pH 7.4 ([Klapperstück et al., 2000]). The oocytes were continuously superfused with ORi^− by gravity flow (5–10 ml/min). The agonists ATP or α,β-meATP and the investigated NSAIDs were diluted in ORi^− on the day of the recording. The following agonist concentrations were used for the different P2X subtypes: 1 μM ATP (hP2X1R mutant, hP2X3R, rP2X3R, S^15V-hP2X3R, and S^15V-rP2X3R); 10 μM ATP (hP2X2R and hP2X4R); 300 μM free ATP^4- (hP2X7R); and 1 μM α,β-meATP (hP2X2/3R). […]

EC50 (hP2X2R; 10 µM ATP, concentration–response curve, read-out: half-maximal potentiation value) [µM]	Compound	IC50 (COX1) [µM]	increase in hP2X2R current amplitude (potentiation) on co-application with ATP (hP2X2R; 10 µM ATP, compared to steady-state current in absence of the drug) [fold]	IC50 (hP2X2R; 10 µM ATP, steady-state protocol, * no inhibition, but potentiation)	Max. inhibition at 1 mM (hP2X2R; 10 µM ATP, * no inhibition, but potentiation)	agonist effect (current induced in the absence of ATP) (hP2X2R; 100 µM diclofenac, 300 µM FFA, absence of ATP)
	O=C(O)Cc1ccccc1Nc1c(Cl)cccc1Cl [Diclofenac, diclofenac]	[…]	1.7	no inh.*	no inh.*	Neither 100 µM diclofenac nor 300 µM FFA induced current
158	O=C(O)c1ccccc1Nc1cccc(C(F)(F)F)c1 [Flufenamic acid, flufenamic acid]					
